Laboratory results taken from patent US20250230193A1, “CYCLIC COMPOUND HAVING SELECTIVE KRAS INHIBITORY EFFECT ON HRAS AND NRAS” (CHUGAI SEIYAKU KABUSHIKI KAISHA, priority 2022, published 2025).
Where a SMILES comes first, the peptide text is derived from it. Bridges are numbered along the chain shown (N, C = ends). [ ]: non-standard residue; d: D form. The star is where a group is joined. hPhe(3-Cl-4-CF3) = N[C@@H](CCc1ccc(C(F)(F)F)c(Cl)c1)C(=O)O; NPrPhe(4-CF3) = CCCN[C@@H](Cc1ccc(C(F)(F)F)cc1)C(=O)O; NMePhe(4-CF3) = CN[C@@H](Cc1ccc(C(F)(F)F)cc1)C(=O)O; NMeGly(cPent) = CN[C@H](C(=O)O)C1CCCC1; NMeD = CN[C@@H](CC(=O)O)C(=O)O; NMeL = CN[C@@H](CC(C)C)C(=O)O; NMeAbu = CC[C@H](NC)C(=O)O; Morpholide = C1CN(*)CCO1; Ac5c = NC1(C(=O)O)CCCC1; Ac4c = NC1(C(=O)O)CCC1; Sar = CNCC(=O)O

Legend:
[1] = biological target: GDP-bound NRAS wild-type protein (Homo sapiens, UniProt P01111); assay: Binding to NRAS by surface plasmon resonance (SPR), Single Cycle Kinetics; conditions: for NRAS/KRAS (ratio of KD value with respect to NRAS to KD value with respect to KRAS) / NRAS/KRAS (ratio of KD value for NRAS to KD value for KRAS): GDP-bound NRAS wild-type vs GDP-bound KRAS wild-type
GDP-bound NRAS wild-type protein, sequence (P01111 whole entry): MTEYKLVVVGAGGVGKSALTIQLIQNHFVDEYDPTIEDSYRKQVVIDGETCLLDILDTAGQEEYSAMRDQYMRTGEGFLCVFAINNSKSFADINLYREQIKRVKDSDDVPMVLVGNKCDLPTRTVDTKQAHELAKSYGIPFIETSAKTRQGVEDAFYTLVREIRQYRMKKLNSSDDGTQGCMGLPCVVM

[2] = biological target: GDP-bound HRAS wild-type protein (Homo sapiens, UniProt P01112); assay: Binding to HRAS by surface plasmon resonance (SPR), Single Cycle Kinetics; conditions: for HRAS/KRAS (ratio of KD value with respect to HRAS to KD value with respect to KRAS) / HRAS/KRAS (ratio of KD value for HRAS to KD value for KRAS): GDP-bound HRAS wild-type vs GDP-bound KRAS wild-type
GDP-bound HRAS wild-type protein, sequence (P01112 whole entry): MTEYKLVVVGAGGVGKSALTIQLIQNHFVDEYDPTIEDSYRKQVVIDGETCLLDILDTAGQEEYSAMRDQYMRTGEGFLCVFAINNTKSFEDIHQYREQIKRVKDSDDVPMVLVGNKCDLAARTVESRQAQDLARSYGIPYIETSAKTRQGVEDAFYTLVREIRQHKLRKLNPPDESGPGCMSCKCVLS

Structure (SMILES): CC[C@H](C)[C@@H]1NC(=O)[C@H](CC(C)C)N(C)C(=O)C[C@@H](C(=O)N2CCOCC2)N(C)C(=O)[C@H](C2CCCC2)N(C)C(=O)C2(CCCC2)NC(=O)[C@@H]2CCCN2C(=O)[C@H](CCc2ccc(C(F)(F)F)c(Cl)c2)NC(=O)CN(C)C(=O)[C@H](Cc2ccc(C(F)(F)F)cc2)N(C)C(=O)CN(C)C(=O)CN(C)C1=O [PP0076] ([NMeL]I[Sar][Sar][NMePhe(4-CF3)][Sar][hPhe(3-Cl-4-CF3)]P[Ac5c][NMeGly(cPent)][NMeD]-Morpholide; lactam N-11)
- NRAS/KRAS (ratio of KD for GDP-bound NRAS wild-type to KD for KRAS) ([1]; KD ratio NRAS/KRAS, SPR): C (A compound having a KD ratio of 0.1 or more and less than 3 is denoted as C)
- HRAS/KRAS (ratio of KD for GDP-bound HRAS wild-type to KD for KRAS) ([2]; KD ratio HRAS/KRAS, SPR): C (A compound having a KD ratio of 0.1 or more and less than 3 is denoted as C)

Structure (SMILES): CCO[C@@H]1C[C@H]2C(=O)NC3(CC(C)(C)C3)C(=O)N(C)[C@@H](C(CC)CC)C(=O)N(C)[C@H](C(=O)N(C)C)CC(=O)N(C)[C@@H](CC3CCC3)C(=O)N[C@@H]([C@@H](C)CC)C(=O)N(C)CC(=O)N(C)[C@H]3C/C=C\CCN(C3=O)[C@@H](Cc3ccc(C)cc3)C(=O)N(C)CC(=O)N[C@@H](CCc3ccc(Cl)c(Cl)c3)C(=O)N2C1 [PP2120]
- NRAS/KRAS (ratio of KD value with respect to NRAS to KD value with respect to KRAS) ([1]; SPR): AA (a compound having 20 or more is denoted as AA)
- HRAS/KRAS (ratio of KD value with respect to HRAS to KD value with respect to KRAS) ([2]; SPR): A (a compound having 10 or more and less than 20 is denoted as A)

Structure (SMILES): CCO[C@@H]1C[C@H]2C(=O)NC3(CC(C)(C)C3)C(=O)N(C)[C@@H](C3CCCC3)C(=O)N(C)[C@H](C(=O)N(C)CC)CC(=O)N(C)[C@@H](CC(C)C)C(=O)N[C@@H]([C@@H](C)CC)C(=O)N(C)CC(=O)N(C)[C@H]3C/C=C\CCN(C3=O)[C@@H](Cc3ccc(C(F)F)cc3)C(=O)N(C)CC(=O)N[C@@H](CCc3ccc(C(F)(F)F)c(Cl)c3)C(=O)N2C1 [PP2829]
- NRAS/KRAS (ratio of KD value with respect to GDP-bound NRAS wild-type protein to KD value with respect to KRAS) ([1]; KD ratio NRAS/KRAS, class symbols): A (a compound having 10 or more and less than 20 is denoted as A)
- HRAS/KRAS (ratio of KD value with respect to GDP-bound HRAS wild-type protein to KD value with respect to KRAS) ([2]; KD ratio HRAS/KRAS, class symbols): A (a compound having 10 or more and less than 20 is denoted as A)

Structure (SMILES): CCCN1C(=O)CN(C)C(=O)CN(C)C(=O)[C@H]([C@@H](C)CC)NC(=O)[C@H](CC(C)C)N(C)C(=O)C[C@@H](C(=O)N2CCOCC2)N(C)C(=O)[C@H](C2CCCC2)N(C)C(=O)C2(CCC2)NC(=O)[C@H](CC)N(C)C(=O)[C@H](CCc2ccc(C(F)(F)F)c(Cl)c2)NC(=O)CN(C)C(=O)[C@@H]1Cc1ccc(C(F)(F)F)cc1 [PP1918] ([NMeL]I[Sar][Sar][NPrPhe(4-CF3)][Sar][hPhe(3-Cl-4-CF3)][NMeAbu][Ac4c][NMeGly(cPent)][NMeD]-Morpholide; lactam N-11)
- NRAS/KRAS (ratio of KD value for NRAS to KD value for KRAS) ([1]; KD ratio, SPR): B (a compound having 3 or more and less than 10 is denoted as B)
- HRAS/KRAS (ratio of KD value for HRAS to KD value for KRAS) ([2]; KD ratio, SPR): C (A compound having a KD ratio of 0.1 or more and less than 3 is denoted as C)

Structure (SMILES): CCO[C@@H]1C[C@H]2C(=O)NC3(CC(C)(C)C3)C(=O)N(C)[C@@H](C(CC)CC)C(=O)N(C)[C@H](C(=O)N(C)C)CC(=O)N(C)[C@@H](CC(C)C)C(=O)N[C@@H]([C@@H](C)CC)C(=O)N(C)CC(=O)N(C)[C@H]3C/C=C\CCN(C3=O)[C@@H](Cc3ccc(C(F)(F)F)cc3)C(=O)N(C)CC(=O)N[C@@H](CCc3cc(F)c(C(F)(F)F)c(F)c3)C(=O)N2C1 [PP2127]
- NRAS/KRAS (ratio of KD value with respect to NRAS to KD value with respect to KRAS) ([1]; SPR): AA (a compound having 20 or more is denoted as AA)
- HRAS/KRAS (ratio of KD value with respect to HRAS to KD value with respect to KRAS) ([2]; SPR): A (a compound having 10 or more and less than 20 is denoted as A)

Structure (SMILES): CC[C@H](C)[C@@H]1NC(=O)[C@H](COC)N(C)C(=O)C[C@@H](C(=O)N2CCOCC2)N(C)C(=O)[C@H](C2CCCC2)N(C)C(=O)C2(CCC2)NC(=O)[C@@H]2C[C@@H](OCC(C)C)CN2C(=O)[C@H](CCc2cc(F)c(C(F)(F)F)c(F)c2)NC(=O)CN(C)C(=O)[C@H](Cc2ccc(C(F)(F)F)cc2)N2CCCCC[C@@H](C2=O)N(C)C(=O)CN(C)C1=O [PP0839]
- NRAS/KRAS (ratio of KD value with respect to NRAS to KD value with respect to KRAS) ([1]; KD ratio, SPR): B (a compound having 3 or more and less than 10 is denoted as B)
- HRAS/KRAS (ratio of KD value with respect to HRAS to KD value with respect to KRAS) ([2]; KD ratio, SPR): B (a compound having 3 or more and less than 10 is denoted as B)

Structure (SMILES): CCO[C@@H]1C[C@H]2C(=O)NC3(CC(C)(C)C3)C(=O)N(C)[C@@H](C3CCCC3)C(=O)N(C)[C@H](C(=O)N(C)CC)CC(=O)N(C)[C@H]3CCC/C=C/c4ccc(cc4)C[C@@H](C(=O)N(C)CC(=O)N[C@@H](CCc4cc(F)c(C(F)(F)F)c(F)c4)C(=O)N2C1)N1CC/C=C\C[C@@H](C1=O)N(C)C(=O)CN(C)C(=O)[C@H]([C@@H](C)CC)NC3=O [PP1835]
- NRAS/KRAS (ratio of KD value for NRAS to KD value for KRAS) ([1]; KD ratio, SPR): A (a compound having 10 or more and less than 20 is denoted as A)
- HRAS/KRAS (ratio of KD value for HRAS to KD value for KRAS) ([2]; KD ratio, SPR): B (a compound having 3 or more and less than 10 is denoted as B)
